ChEMBL document CHEMBL4270503, “Recent developments in small molecule therapies for renal cell carcinoma” (Eur J Med Chem, 2017)

How the values were obtained:
Homo sapiens [1] = organism: Homo sapiens; experiment: Antitumor activity in renal cell carcinoma patient with previous sunitinib treatment assessed as progression free survival; type: functional
Homo sapiens [2] = organism: Homo sapiens; experiment: Antitumor activity in renal cell carcinoma patient with previous cytokine therapies assessed as progression free survival; type: functional
Homo sapiens [3] = organism: Homo sapiens; experiment: Antitumor activity in patient with metastatic renal cell carcinoma assessed as progression free survival; type: functional
Homo sapiens [4] = organism: Homo sapiens; experiment: Antitumor activity in patient with metastatic renal cell carcinoma assessed as overall survival; type: functional
Homo sapiens [5] = organism: Homo sapiens; experiment: Antitumor activity in renal cell carcinoma patient with 2 previous VEGFR TKI treatment assessed as progression free survival (reference value: 1.8 months); type: functional
Homo sapiens [6] = organism: Homo sapiens; experiment: Antitumor activity in renal cell carcinoma patient without previous VEGFR TKI treatment assessed as progression free survival (reference value: 1.9 months); type: functional
Homo sapiens [7] = organism: Homo sapiens; experiment: Antitumor activity in patient with renal cell carcinoma assessed as overall survival during phase 3 non-inferiority trial; type: functional
CAKI-2 = experiment: Antitumor activity against human Caki2 cells xenografted in nuded mouse assessed as inhibition of tumor growth at 10 mg/kg, po; type: functional; settings: CAKI-2, po, read-out: TGI
HUVEC [8] = experiment: cells; settings: Homo sapiens
Homo sapiens [9] = organism: Homo sapiens; experiment: Antitumor activity in patient with renal cell carcinoma assessed as progression free survival during phase 3 non-inferiority trial; type: functional
HUVEC [10] = experiment: cells; settings: Homo sapiens; remark: listed apart in the source
Homo sapiens [11] = organism: Homo sapiens; experiment: Antitumor activity in treatment-naive and cytokine-refractory patient with renal cell carcinoma assessed as progression free survival (reference value: 4.2 months); type: functional
Homo sapiens [12] = organism: Homo sapiens; experiment: Antitumor activity in patient with renal cell carcinoma assessed as progression free survival (reference value: 2.8 months); type: functional
Homo sapiens [13] = organism: Homo sapiens; experiment: Antitumor activity in patient with renal cell carcinoma assessed as overall survival (reference value: 15.2 months); type: functional
Homo sapiens [14] = organism: Homo sapiens; experiment: Antitumor activity in patient with metastatic renal cell carcinoma assessed as progression free survival during phase 3 trial; type: functional
Homo sapiens [15] = organism: Homo sapiens; experiment: Antitumor activity in patient with metastatic renal cell carcinoma assessed as overall survival during phase 3 trial; type: functional
Homo sapiens [16] = organism: Homo sapiens; experiment: Antitumor activity in patient with metastatic renal cell carcinoma assessed as objective response during phase 3 trial; type: functional
Homo sapiens [17] = organism: Homo sapiens; experiment: Antitumor activity in patient with renal cell carcinoma assessed as progression free survival during phase 2 trial; type: functional
Homo sapiens [18] = organism: Homo sapiens; experiment: Antitumor activity in patient with metastatic renal cell carcinoma assessed as progression free survival co-treated with IFNalpha during phase 3 trial; type: functional

For `CNC(=O)c1ccccc1Sc1ccc2c(/C=C/c3ccccn3)n[nH]c2c1` [AXITINIB], the Survival (Homo sapiens [1]) was 4.8 months and the Survival (Homo sapiens [2]) was 12.1 months.
In the case of `COc1cc2nccc(Oc3ccc(NC(=O)C4(C(=O)Nc5ccc(F)cc5)CC4)cc3)c2cc1OC` [CABOZANTINIB], the Survival (Homo sapiens [3]) is reported as 7.4 months.
For `CO[C@H]1C[C@@H]2CC[C@@H](C)[C@@](O)(O2)C(=O)C(=O)N2CCCC[C@H]2C(=O)O[C@H]([C@H](C)C[C@@H]2CC[C@@H](OCCO)[C@H](OC)C2)CC(=O)[C@H](C)/C=C(\C)[C@@H](O)[C@@H](OC)C(=O)[C@H](C)C[C@H](C)/C=C/C=C/C=C/1C` [EVEROLIMUS], the Survival (Homo sapiens [4]) was 16.5 months, the Survival (Homo sapiens [3]) was 3.9 months and the Survival (Homo sapiens [5]) was 4 months. The Survival (Homo sapiens [6]) was 5.4 months.
`Cc1ccc(Nc2nccc(N(C)c3ccc4c(C)n(C)nc4c3)n2)cc1S(N)(=O)=O` [PAZOPANIB] showed a Survival (Homo sapiens [7]) of 28.3 months, an inhibition in vivo at 10 mg/kg (CAKI-2) of 77% and an IC50 (HUVEC [8]) of 0.72 µM. For the same compound, the Survival (Homo sapiens [9]) was 8.4 months, the IC50 (HUVEC [10]) was 0.021 µM and the Survival (Homo sapiens [11]) was 9.2 months.
With `CNC(=O)c1cc(Oc2ccc(NC(=O)Nc3ccc(Cl)c(C(F)(F)F)c3)cc2)ccn1` [SORAFENIB] the Survival (Homo sapiens [1]) was 3.4 months, the Survival (Homo sapiens [12]) was 5.5 months and the Survival (Homo sapiens [13]) was 17.8 months. For the same compound, the Survival (Homo sapiens [2]) was 6.5 months.
In the case of `CCN(CC)CCNC(=O)c1c(C)[nH]c(/C=C2\C(=O)Nc3ccc(F)cc32)c1C` [SUNITINIB], the Survival (Homo sapiens [7]) is reported as 29.1 months, the Survival (Homo sapiens [14]) is reported as 11 months and the Survival (Homo sapiens [15]) is reported as 26.4 months. For the same compound, the Activity (Homo sapiens [16]) was 31% and the Survival (Homo sapiens [17]) was 7.8 months.
`CO[C@H]1C[C@@H]2CC[C@@H](C)[C@@](O)(O2)C(=O)C(=O)N2CCCC[C@H]2C(=O)O[C@H]([C@H](C)C[C@@H]2CC[C@@H](OC(=O)C(C)(CO)CO)[C@H](OC)C2)CC(=O)[C@H](C)/C=C(\C)[C@@H](O)[C@@H](OC)C(=O)[C@H](C)C[C@H](C)/C=C/C=C/C=C/1C` [TEMSIROLIMUS] gave a Survival (Homo sapiens [18]) of 8.4 months and a Survival (Homo sapiens [14]) of 10.9 months.
